The text below walks through data of publication doi:10.1101/2023.03.24.534094v2 (biorxiv, 2023).

Targets include CaMK2b (Homo sapiens, UniProt Q13554); CK2a1 (Homo sapiens, UniProt P68400); BRD4 (Homo sapiens, UniProt O60885).
Test in all cases: biochemical
The target in another test is T1, MAP3K5 (Homo sapiens, UniProt Q99683).
T1 sequence (Q99683 1-1374): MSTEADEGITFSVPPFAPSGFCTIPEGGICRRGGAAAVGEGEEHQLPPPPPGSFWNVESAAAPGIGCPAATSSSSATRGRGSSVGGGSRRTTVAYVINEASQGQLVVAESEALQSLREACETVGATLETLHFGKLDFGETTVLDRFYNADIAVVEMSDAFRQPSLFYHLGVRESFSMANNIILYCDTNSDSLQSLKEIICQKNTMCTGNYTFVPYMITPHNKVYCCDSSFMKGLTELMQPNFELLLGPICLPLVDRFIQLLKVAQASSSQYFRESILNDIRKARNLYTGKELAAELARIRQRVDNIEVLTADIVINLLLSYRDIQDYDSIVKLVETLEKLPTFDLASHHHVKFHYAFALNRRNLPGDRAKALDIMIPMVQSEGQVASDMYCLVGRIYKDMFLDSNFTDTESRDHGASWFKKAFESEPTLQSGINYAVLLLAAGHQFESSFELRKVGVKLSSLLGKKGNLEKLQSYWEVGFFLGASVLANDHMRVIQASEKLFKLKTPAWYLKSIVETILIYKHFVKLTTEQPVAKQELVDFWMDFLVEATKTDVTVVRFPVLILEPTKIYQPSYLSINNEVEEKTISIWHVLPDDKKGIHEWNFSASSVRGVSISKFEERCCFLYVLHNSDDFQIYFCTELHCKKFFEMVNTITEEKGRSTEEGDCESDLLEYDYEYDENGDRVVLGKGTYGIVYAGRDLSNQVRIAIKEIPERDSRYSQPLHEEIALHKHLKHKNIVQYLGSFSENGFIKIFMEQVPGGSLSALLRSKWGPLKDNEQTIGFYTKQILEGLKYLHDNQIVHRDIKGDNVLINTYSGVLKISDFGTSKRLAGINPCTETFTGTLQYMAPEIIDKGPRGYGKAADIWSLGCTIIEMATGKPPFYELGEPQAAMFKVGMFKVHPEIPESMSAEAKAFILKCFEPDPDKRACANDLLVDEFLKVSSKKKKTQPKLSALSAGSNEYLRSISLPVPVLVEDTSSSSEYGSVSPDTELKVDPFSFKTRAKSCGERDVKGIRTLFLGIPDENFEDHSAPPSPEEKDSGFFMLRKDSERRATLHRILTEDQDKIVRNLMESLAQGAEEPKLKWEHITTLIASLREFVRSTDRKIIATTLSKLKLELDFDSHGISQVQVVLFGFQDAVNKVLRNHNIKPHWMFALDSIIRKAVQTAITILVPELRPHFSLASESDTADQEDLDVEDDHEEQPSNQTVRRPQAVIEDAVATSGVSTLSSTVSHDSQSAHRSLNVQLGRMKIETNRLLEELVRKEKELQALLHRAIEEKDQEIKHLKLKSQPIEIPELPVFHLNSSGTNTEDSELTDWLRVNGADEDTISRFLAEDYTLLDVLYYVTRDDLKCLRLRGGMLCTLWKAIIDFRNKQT

A further test deals with T2, MER (Homo sapiens, UniProt Q12866).
T2 sequence (Q12866 1-999): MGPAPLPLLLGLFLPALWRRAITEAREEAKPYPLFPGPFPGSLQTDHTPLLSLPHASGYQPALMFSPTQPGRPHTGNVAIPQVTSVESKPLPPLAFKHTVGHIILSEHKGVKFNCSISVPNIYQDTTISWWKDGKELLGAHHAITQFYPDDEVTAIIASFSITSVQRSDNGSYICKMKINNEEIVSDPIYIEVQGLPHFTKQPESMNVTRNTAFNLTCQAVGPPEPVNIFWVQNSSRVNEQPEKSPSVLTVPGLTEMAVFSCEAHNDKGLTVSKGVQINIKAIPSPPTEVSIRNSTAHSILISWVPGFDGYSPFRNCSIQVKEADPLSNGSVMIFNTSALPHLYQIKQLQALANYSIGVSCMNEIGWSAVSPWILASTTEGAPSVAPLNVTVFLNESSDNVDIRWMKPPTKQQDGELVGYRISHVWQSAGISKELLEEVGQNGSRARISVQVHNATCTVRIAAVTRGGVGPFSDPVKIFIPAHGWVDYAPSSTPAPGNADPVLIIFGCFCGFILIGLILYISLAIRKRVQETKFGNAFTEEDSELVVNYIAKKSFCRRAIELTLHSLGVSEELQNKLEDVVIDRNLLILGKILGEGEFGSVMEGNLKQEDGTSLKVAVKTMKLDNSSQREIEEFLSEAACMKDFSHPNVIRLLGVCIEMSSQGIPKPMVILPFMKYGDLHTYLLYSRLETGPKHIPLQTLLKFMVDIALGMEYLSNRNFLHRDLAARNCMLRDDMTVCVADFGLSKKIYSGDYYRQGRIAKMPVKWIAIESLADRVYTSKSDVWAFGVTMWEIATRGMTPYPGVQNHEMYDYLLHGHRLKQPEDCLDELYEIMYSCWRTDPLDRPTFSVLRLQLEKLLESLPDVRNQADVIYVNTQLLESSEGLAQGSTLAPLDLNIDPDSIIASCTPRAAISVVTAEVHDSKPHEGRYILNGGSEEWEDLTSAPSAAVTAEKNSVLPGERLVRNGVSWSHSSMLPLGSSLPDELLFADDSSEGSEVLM

The next test concerns the target T3, MAP2K6 (Homo sapiens, UniProt P52564).
T3 sequence (P52564 1-334): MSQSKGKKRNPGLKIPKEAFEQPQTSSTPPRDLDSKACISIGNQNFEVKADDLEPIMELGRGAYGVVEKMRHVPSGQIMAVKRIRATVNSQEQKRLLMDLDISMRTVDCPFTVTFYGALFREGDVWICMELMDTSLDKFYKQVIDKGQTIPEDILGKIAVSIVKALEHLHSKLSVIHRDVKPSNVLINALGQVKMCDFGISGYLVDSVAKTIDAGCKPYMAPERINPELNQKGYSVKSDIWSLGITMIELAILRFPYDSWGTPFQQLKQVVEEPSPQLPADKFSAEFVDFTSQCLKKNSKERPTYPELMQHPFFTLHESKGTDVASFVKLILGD

Where two headings read alike, the source gives them in different places.

Chain of CaMK2b (Q13554 whole entry): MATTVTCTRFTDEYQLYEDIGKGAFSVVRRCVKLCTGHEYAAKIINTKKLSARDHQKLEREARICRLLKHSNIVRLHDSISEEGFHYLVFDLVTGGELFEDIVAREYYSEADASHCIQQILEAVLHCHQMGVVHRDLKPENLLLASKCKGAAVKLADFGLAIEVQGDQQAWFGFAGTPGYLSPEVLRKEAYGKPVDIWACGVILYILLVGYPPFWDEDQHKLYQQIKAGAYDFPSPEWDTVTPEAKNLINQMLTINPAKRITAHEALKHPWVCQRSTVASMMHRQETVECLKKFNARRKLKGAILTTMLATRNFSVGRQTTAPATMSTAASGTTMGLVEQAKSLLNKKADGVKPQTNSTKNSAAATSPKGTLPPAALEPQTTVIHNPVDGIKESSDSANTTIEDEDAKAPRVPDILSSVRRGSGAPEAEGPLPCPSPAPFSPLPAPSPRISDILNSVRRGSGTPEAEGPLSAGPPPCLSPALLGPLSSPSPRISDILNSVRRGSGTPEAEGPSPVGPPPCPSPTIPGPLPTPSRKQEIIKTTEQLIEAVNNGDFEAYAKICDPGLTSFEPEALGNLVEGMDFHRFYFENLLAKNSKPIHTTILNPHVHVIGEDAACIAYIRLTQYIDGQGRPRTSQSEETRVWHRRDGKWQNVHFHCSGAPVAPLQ
Chain of CK2a1 (P68400 whole entry): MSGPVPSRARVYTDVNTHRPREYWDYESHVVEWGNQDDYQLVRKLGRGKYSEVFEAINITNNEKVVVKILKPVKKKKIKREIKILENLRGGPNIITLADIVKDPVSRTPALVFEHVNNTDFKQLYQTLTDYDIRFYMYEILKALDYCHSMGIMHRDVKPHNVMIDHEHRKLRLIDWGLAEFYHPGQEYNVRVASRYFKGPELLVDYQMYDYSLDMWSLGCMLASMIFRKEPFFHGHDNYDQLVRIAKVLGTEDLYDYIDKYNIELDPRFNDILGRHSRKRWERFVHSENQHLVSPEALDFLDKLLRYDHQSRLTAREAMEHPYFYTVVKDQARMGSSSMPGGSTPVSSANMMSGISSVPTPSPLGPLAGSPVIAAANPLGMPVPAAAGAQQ

On to `CNc1ncc2cc(-c3ccc(-c4cccc(C)n4)cc3Cl)c(=O)n(CC3OCC(N)CO3)c2n1` (stereo not drawn) [compound 2, G-5555], for which the “dTm G-5555 (2)” value is 8.9 °C at MAP3K5 (10 µM, binder); -1.7 °C at CaMK2b (10 µM, binder); 0.1 °C at CK2a1 (10 µM, binder); 0.8 °C on MER (10 µM, binder); 4.4 °C on MAP2K6 (10 µM, binder); -1.1 °C on BRD4 (10 µM, binder).
On to `CNc1ncc2cc(-c3cc(Br)ccc3Cl)c(=O)n(C[C@H]3OC[C@H](N)CO3)c2n1` [compound 7, 8-(((2r,5r)-5-Amino-1,3-dioxan-2-yl)methyl)-6-(5-bromo-2-chlorophenyl)-2-(methylamino)pyrido[2,3-d]pyrimidin-7(8H)-one], for which the ΔTm at 10 µM on MAP3K5 (read-out: dTm 7) is 0.8 °C; at CaMK2b (read-out: dTm 7) it was 0.2 °C; on CK2a1 (read-out: dTm 7) it was 0.4 °C; on MER (read-out: dTm 7), 0.2 °C; on MAP2K6 (read-out: dTm 7), 0.9 °C; on BRD4 (read-out: dTm 7), 0.9 °C.
In the case of `CNc1ncc2cc(-c3cc(Br)ccc3Cl)c(=O)n(CCCCN)c2n1` [compound 6, 8-(4-Aminobutyl)-6-(5-bromo-2-chlorophenyl)-2-(methylamino)pyrido[2,3-d]pyrimidin-7(8H)-one], the ΔTm at 10 µM on MAP3K5 (read-out: dTm 6) is 0.9 °C; on CaMK2b (read-out: dTm 6), 0.1 °C; on CK2a1 (read-out: dTm 6), 0.2 °C; at MER (read-out: dTm 6), 0.1 °C; on MAP2K6 (read-out: dTm 6) it was 1.4 °C; at BRD4 (read-out: dTm 6), -0.1 °C.
As for `CNc1ncc2cc(-c3ccccc3Cl)c(=O)n(CCCCN)c2n1` [compound 4, 8-(4-Aminobutyl)-6-(2-chlorophenyl)-2-(methylamino)pyrido[2,3-d]pyrimidin-7(8H)-one], the ΔTm at 10 µM on MAP3K5 (read-out: dTm MR21 (4)) is 2.9 °C; on CaMK2b (read-out: dTm MR21 (4)), -1.1 °C; at CK2a1 (read-out: dTm MR21 (4)), -0.4 °C; at MER (read-out: dTm MR21 (4)), 2.8 °C; on MAP2K6 (read-out: dTm MR21 (4)), 3.1 °C; on BRD4 (read-out: dTm MR21 (4)), 0.1 °C.
`CNc1ncc2cc(-c3cc(F)ccc3F)c(=O)n(CCCCN)c2n1` [compound 5, 8-(4-Aminobutyl)-6-(2,5-difluorophenyl)-2-(methylamino)pyrido[2,3-d]pyrimidin-7(8H)-one]: the ΔTm at 10 µM was 1 °C at MAP3K5 (read-out: dTm MR22 (5)); -0.6 °C at CaMK2b (read-out: dTm MR22 (5)); 0.4 °C at CK2a1 (read-out: dTm MR22 (5)); -0.8 °C at MER (read-out: dTm MR22 (5)); 1 °C on MAP2K6 (read-out: dTm MR22 (5)); -2.8 °C at BRD4 (read-out: dTm MR22 (5)).
